Series [1] in a line: Nitrosamine test for API and finish product, UPLC-MS/MS. The settings on record: for API nitrosamine level (Nitro-P08) (based on varenicline base): initial level of API lot. The series is classed as physicochemical. As to the method:
4. Nitrosamine Test Method for API and Finish Product
UPLC-MS/MS, Thermo scientific; Orbitrap Exploris 120
4.2. Solution Preparations
4.2.2 Mobile phase A: Formic acid: Purified Water (0.1:100), transferred 500 mL purified water to 500 mL analysis bottle, then added 500 μL formic acid and well mixed. Ultrasonic Degassing for 5 min.
4.2.3 Mobile phase B: Formic acid: Methanol (0.1:100), transferred 500 mL methanol to 500 mL analysis bottle, then added 500 μL formic acid and well mixed. Ultrasonic degassing for 5 min.
4.2.4 Reference stock solution I: Weight about 2.0 mg of 8-nitroso-7,8,9,10-tetrahydro-6H-6,10-methanoazepino[4,5-g]quinoxaline (Nitro-P08) into a 100 mL volumetric flask. Dissolve with methanol and dilute to volume and well mixed (about 20 μg/mL of Nitro-P08).
4.2.5 Reference stock solution II: Accurately pipet 5.0 mL of reference stock solution I into a 200-mL volumetric flask, dilute with methanol to volume and well mixed (about 500 ng/mL of Nitro-P08).
4.2.6 Reference stock solution III: Accurately pipet 5.0 mL of reference stock solution II into a 50-mL volumetric flask, dilute with methanol to volume and well mixed (about 50 ng/mL of Nitro-P08).
4.2.7 Reference solution: Accurately pipet 1.0 mL of reference stock solution III into a 50-mL volumetric flask, dilute with methanol to volume and well mixed.
Weighted about 25 mg of sample into a 50 mL volumetric flask. Diluted to volume with Diluent and well mixed. Prepared 2 duplication in parallel.
4.2.8.2 for Finish Product
Grind 10 tablets for 1 mg strength or 20 tablets for 0.5 mg strength, accurately weigh and transfer about 0.61 g of powder (equivalent to about 5 mg of Varenicline Tartrate API) into a 50 mL stoppered test tube, add 10 mL of methanol, vortex for 1 min and treat with ultrasound for 20 min. Place it still for 10 min, take an appropriate amount of solution for centrifugation (10000 rpm, 10 min), and then take the supernatant as the test solution. Prepare in duplicates. (Note: Grind the tablets and weigh right before the test sample solution preparation.)

Series [2] in a line: Particle size, Mastersizer 3000 laser particle size analyzer, wet method. The series is classed as physicochemical. As to the method:
The particle size of five representative lots of varenicline tartrate was determined and the results are as follows:
Mastersizer 3000 Laser Particle Size Analyzer and Electronic Analytical Balance
3.3.1 Preparation N-hexane solution of 0.1% span 85.
3.3.2 Weigh about 0.04 g sample and add into 5 mL dispersant, and ultrasonic for 10 min.
3.4.1 Cleaning instrument.
3.4.2 The above parameters are set,
3.4.3 Reconfirm the inspection parameters.
3.4.4 Background checks are required.
3.4.5 Samples tested and each for 3 times.

[3] abbreviates: API lot of compatibility study, 80 mesh.
[4] abbreviates: particle size of varenicline tartrate lot.
[5] abbreviates: particle size of varenicline tartrate lot, listed as 202010004.
[6] abbreviates: particle size of varenicline tartrate lot, listed as 202012001.
The mark [7] stands for this setting: particle size of varenicline tartrate lot, listed as 202012002.

On to Varenicline Tartrate [Lot 6A], for which the “API nitrosamine level (Nitro-P08) (based on varenicline base)” value in series [1] is listed as 7.35 ppm.
Turning to Varenicline Tartrate [Lot 201702001], in series [2] (setting [3]), the D10 was 1.1 µm, the D50 amounted to 3.3 µm and the D90 is 11 µm.
As to Varenicline Tartrate [Lot 201810001], in series [1] (<30° C., >[…]), the “Nitroso impurity [drawing 4] in bulk drug substance (API)” value stood at 7.1 ppm and the “Nitroso impurity [drawing 5] in bulk drug substance (API)” value is listed as “<LOQ (0.0289 ppm)”. In series [2] (setting [4]), this substance showed a D10 of 0.858 μm, a D50 of 2.600 μm and a D90 of 9.660 μm.
With Varenicline Tartrate [Lot 201811001], in series [1] (<30° C., >[…]), the “Nitroso impurity [drawing 4] in bulk drug substance (API)” value is 18.3 ppm and the “Nitroso impurity [drawing 5] in bulk drug substance (API)” value is reported as “<LOQ (0.0289 ppm)”. In series [2] (setting [4]), this substance came in with a D10 of 0.878 μm, a D50 of 2.630 μm and a D90 of 32.700 μm.
For the substance Varenicline Tartrate [Lot 202010004], in series [2] (setting [5]), the D10 is reported as 2.339 μm, the D50 was found to be 6.354 μm and the D90 came out at 11.802 μm.
As for Varenicline Tartrate [Lot 202012001], in series [2] (setting [6]), the D10 is given as 1.547 μm, the D50 is listed as 4.088 μm and the D90 is recorded as 8.554 μm.
For Varenicline Tartrate [Lot 202012002], in series [1] (listed as 6B), the “API nitrosamine level (Nitro-P08) (based on varenicline base)” value is recorded as 1.8 ppm. Further, in series [2] (setting [7]), the D10 was found to be 2.269 μm, the D50 came to 5.708 μm and the D90 was 11.288 μm.
Turning to Varenicline Tartrate [Lot 202101002], in series [1] (initial), the “Nitroso impurity [drawing 4] in bulk drug substance (API)” value amounted to 1.6 ppm and the “Nitroso impurity [drawing 5] in bulk drug substance (API)” value is “<LOQ (0.0289 ppm)”.

Source of the values: patent US20230190762A1, “STABLE VARENICLINE DOSAGE FORMS” (Handa Pharma, Inc., priority 2021, published 2023).
